This note sets out measurements from patent publication US7169932B2 (priority 2001, dated 2007).

The subject of data set [1] is HIV-1 NL4–3 or HIV-1 NL4–3(184V/L90M). Put plainly: Susceptibility assay, p24 ELISA in infected MT-2 cells. The data set is classed as cell-based. The note with it: Human immunodeficiency virus 1, MT2, 72 h, read-out: EC50 or IC50 (mM). As for the experimental part: T-cell lines, CEM-SS, and MT-2, and viruses HIV-1 RF and HIV-1 NL4–3 (pNL4–3) were obtained from the National Institutes of Health (AIDS Research and Reference Reagent Program, Bethesda, Md.).
(§1) Compounds were tested in phenotypic susceptibility assays at Virologic, Inc., (See Petropoulos C. J., Parkin N. T., Limoli K. L., Lie Y. S., Wrin T., Huang W., Tian H., Smith D., Winslow G. A., Capon D J, Whitcomb J M. 2000, “A novel phenotypic drug susceptibility assay for human immunodeficiency virus type 1,” Antimicrob Agents Chemother 44(4):920–928) or using the assay described here. MT-2 cells were infected with either HIV-1 NL4–3 or HIV-1 NL4–3(184V/L90M) and incubated in the presence of serial 0.5 log dilutions of test compounds. Three days later, culture supernatants were collected and virus production, as determined by p24 ELISA, was assayed. Percent inhibition was calculated as p24 concentration in compound-treated samples as compared to infected, compound-free controls. Inhibition of viral replication is determined by measuring reduction in HIV p24 present in the culture supernatant, using a Beckman-Coulter p24 HIV-1 Ag EIA kit and following the supplied protocol. Absorbance is read on a MRX microplate reader (Dynex Technologies). The EC50 was calculated as the concentration of compound that effected a decrease in the p24 production by infected, compound-treated cells to 50% of that produced by infected, compound-free cells.
In general terms: In an ELISA, binding on a coated surface is turned into a signal by an enzyme label.

The target of a further data set is T1, HIV-1 protease (Q7S) (Human immunodeficiency virus type 1 group M subtype B, UniProt P04585, Q495S).
T1 construct: made in house
In words: HIV-1 Protease RET Assay. The data set is classed as biochemical. Particulars: RET assay, Q7S enzyme, pH 4.8, 37 C. In a few lines: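 Ki values came from a RET assay on refolded Q7S protease (2 nM active dimer) cleaving RE(EDANS)SQNYPIVQK(DABCYL)R at 5 μM, read at ex 340/em 490 nm. Reactions ran 12 min at 37 C in 0.1M sodium acetate pH 4.8, 1M NaCl, 5 mM DTT, 10% DMSO; curves were fit with the Morrison tight-binding equation.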

Another data set deals with HIV-1. Put plainly: Cytopathic Effect (CPE) Inhibition Assay (XTT dye reduction). It counts as cell-based. The note with it: Human immunodeficiency virus 1, 144 h, read-out: Ave CPE EC50 (mM), protection of infected cells, six days, XTT. In a few lines: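 CEM-SS or MT-2 cells infected with HIV-1 RF or NL4–3 (moi 0.025–0.819), 2×10^4 cells/well, incubated six days with half-log compound dilutions. Viability read by XTT formazan at 450 nm; EC50 is the concentration restoring 50% of uninfected-control formazan, CC50 from uninfected treated cells, therapeutic index CC50/EC50.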
Background: Damage to the host cells serves as the signal in cytopathic effect assays.

The subject of another data set is 46I, 84V, 90M virus. In words: Phenotypic susceptibility assay at Virologic, Inc. The data set is classed as cell-based, HIV-1. Particulars: Human immunodeficiency virus 1. As for the experimental part: as §1

Values joined by “and” are separate entries in the source; they are usually repeats but may differ in a detail not shown here. Identical values can stand only once. Like-named read-outs stand apart in the source and are kept apart here. A value given as a limit tells only on which side of the number the result lay.

A word on the EC50: it is the midpoint of the concentration-response curve. For orientation: Ki means a measure of affinity in units of concentration, obtained from inhibition or displacement. `Cc1ccccc1CNC(=O)[C@H]1N(C(=O)[C@@H](O)[C@H](Cc2ccccc2)NC(=O)c2cccc(O)c2C)COC1(C)C` [Example C6, (S)-3-((2S,3S)-2-Hydroxy-3-{[1-(3-hydroxy-2-methyl-phenyl)-methanoyl]-amino}-4-phenyl-butanoyl)-5,5-dimethyl-oxazolidine-4-carboxylic acid 2-methyl-benzylamide]: the figures for the EC50 (in data set [1]; with HIV-1) were 1480 nM and 164 nM, respectively. On HIV-1 protease (Q7S) (Ave. Ki (nM)), this compound gave a Ki below 0.1 nM.
Take `Cc1c(O)cccc1C(=O)N[C@@H](Cc1ccccc1)[C@H](O)C(=O)N1CSC(C)(C)[C@H]1C(=O)NCc1cccc(O)c1` [Example A42, (R)-3-((2S,3S)-2-Hydroxy-3-{[1-(3-hydroxy-2-methyl-phenyl)-methanoyl]-amino}-4-phenyl-butanoyl)-5,5-dimethyl-thiazolidine-4-carboxylic acid 3-hydroxy-benzylamide]: the EC50 in data set [1] came out at 307 nM; in the data set with HIV-1, 126 nM. The compound further showed a Ki at HIV-1 protease (Q7S) (Ave. Ki (nM)) of 0.23 nM.
The corresponding values for `Cc1ccccc1CNC(=O)[C@H]1N(C(=O)[C@@H](O)[C@H](Cc2ccccc2)NC(=O)c2ccccc2C)CSC1(C)C` [Example B16, 3-[2-Hydroxy-3-(2-methyl-benzoylamino)-4-phenyl-butyryl]-5,5-dimethyl-thiazolidine-4-carboxylic acid 2-methyl-benzylamide] are 1750 nM, 298 nM and below 0.1 nM.
In general, IC50 refers to the concentration that gives 50% inhibition. A low value points to greater potency in that assay. For the compound `C=CCNC(=O)[C@H]1N(C(=O)[C@@H](O)[C@H](Cc2ccccc2)NC(=O)c2cccc(O)c2C)CSC1(C)C` [Example A14, (R)-3-((2S,3S)-2-Hydroxy-3-{[1-(3-hydroxy-2-methyl-phenyl)-methanoyl]-amino}-4-phenyl-butanoyl)-5,5-dimethyl-thiazolidine-4-carboxylic acid allylamide], the 50% inhibitory concentration (IC50) with 46I, 84V, 90M virus is 71 nM. On HIV-1 protease (Q7S) (Ave. Ki (nM)), the Ki is 0.44 nM. Also, the EC50 in the data set with HIV-1 was 52 nM.
`C/C=C(\C)CNC(=O)[C@H]1N(C(=O)[C@@H](O)[C@H](Cc2ccccc2)NC(=O)c2cccc(O)c2C)CSC1(C)C` [Example A35, (R)-3-((2S,3S)-2-Hydroxy-3-{[1-(3-hydroxy-2-methyl-phenyl)-methanoyl]-amino}-4-phenyl-butanoyl)-5,5-dimethyl-thiazolidine-4-carboxylic acid ((E)-2-methyl-but-2-enyl)-amide]: the half-maximal effective concentration (EC50) in data set [1] was 63 nM; in the data set with HIV-1, 17 nM. The Ki on HIV-1 protease (Q7S) (Ave. Ki (nM)) is below 0.1 nM.
Take `Cc1ccccc1CNC(=O)C1N(C(=O)C(O)C(Cc2ccccc2)NC(=O)c2c(C)c(=O)on2C)CSC1(C)C` (stereo not drawn) [Example B19, 2,4-Dimethyl-5-oxo-2,5-dihydro-isoxazole-3-carboxylic acid {1-benzyl-3-[5,5-dimethyl-4-(2-methyl-benzylcarbamoyl)-thiazolidin-3-yl]-2-hydroxy-3-oxo-propyl}-amide]: the results for the EC50 (in data set [1]; in the data set on HIV-1) were 1370 nM and 124 nM, respectively. The same compound came in with a Ki on HIV-1 protease (Q7S) (Ave. Ki (nM)) below 0.1 nM.
With `Cc1c(O)cccc1C(=O)N[C@@H](Cc1ccccc1)[C@H](O)C(=O)N1CSC(C)(C)[C@H]1C(=O)NCc1ccccc1O` [Example A44, (R)-3-((2S,3S)-2-Hydroxy-3-{[1-(3-hydroxy-2-methyl-phenyl)-methanoyl]-amino}-4-phenyl-butanoyl)-5,5-dimethyl-thiazolidine-4-carboxylic acid 2-hydroxy-benzylamide], the EC50 in data set [1] was determined as 472 nM; in the data set with HIV-1, 22 nM. The affinity at HIV-1 protease (Q7S) (Ave. Ki (nM)), expressed as Ki, was 0.14 nM.
For orientation: melting point means the temperature of the solid-liquid transition. `CCCN(C)C(=O)[C@H]1N(C(=O)[C@@H](O)[C@H](Cc2ccccc2)NC(=O)c2cccc(O)c2C)CSC1(C)C` [Example A46, (R)-3-((2S,3S)-2-Hydroxy-3-{[1-(3-hydroxy-2-methyl-phenyl)-methanoyl]-amino}-4-phenyl-butanoyl)-5,5-dimethyl-thiazolidine-4-carboxylic acid methyl-propyl-amide] had a melting point of 108 to 110 °C. In data set [1], the 50% effective concentration (EC50) was found to be 790 nM. The Ki on HIV-1 protease (Q7S) (Ave. Ki (nM)) was 0.31 nM. Further, the half-maximal effective concentration (EC50) in the data set with HIV-1 stood at 91 nM.
For the compound `C=CCNC(=O)[C@H]1N(C(=O)[C@@H](O)[C@H](Cc2ccccc2)NC(=O)c2cc(C)cc(O)c2C)CSC1(C)C` [Example D4, (R)-3-[(2S, 3S)-2-Hydroxy-3-(3-hydroxy-2,5-dimethyl-benzoylamino)-4-phenyl-butyryl]-5,5-dimethyl-thiazolidine-4-carboxylic acid allylamide], the EC50 in data set [1] stood at 1950 nM; with HIV-1 it was 16 nM. For the same compound, on HIV-1 protease (Q7S) (read-out: Ave. Ki), the Ki was 0.7 nM.
On to `COCCCC(=O)[C@H]1N(C(=O)[C@@H](O)[C@H](Cc2ccccc2)NC(=O)c2cccc(O)c2C)CSC1(C)C` [Example D3, N-{1-Benzyl-2-hydroxy-3-[4-(4-methoxy-butanoyl)-5,5-dimethyl-thiazolidin-3-yl]-3-oxo-propyl}-3-hydroxy-2-methyl-benzamide], for which the results for the concentration for a half-maximal effect (EC50) (in data set [1]; in the data set with HIV-1) were 1950 nM and 162 nM, respectively. On HIV-1 protease (Q7S) (Ave. Ki (nM)), this compound registered an inhibition constant (Ki) of 0.5 nM.
The like results for `Cc1c(O)cccc1C(=O)N[C@@H](Cc1ccccc1)[C@H](O)C(=O)N1CSC(C)(C)[C@H]1C(=O)NCc1c(F)cccc1C(F)(F)F` [Example A24, (R)-3-((2S,3S)-2-Hydroxy-3-{[1-(3-hydroxy-2-methyl-phenyl)-methanoyl]-amino}-4-phenyl-butanoyl)-5,5-dimethyl-thiazolidine-4-carboxylic acid fluoro-trifluoromethyl-benzylamide] were, in that order, 831 nM, 104 nM and 0.18 nM.
Consider `Cc1ccccc1CNC(=O)[C@H]1N(C(=O)[C@@H](O)[C@H](Cc2ccccc2)NC(=O)N2CC[C@H](O)C2)CSC1(C)C` (stereo in doubt) [Example B8, 3-(2-hydroxy-3-{[1-(3-hydroxy-pyrrolidin-yl)-methanoyl]-amino}-4-phenyl-butanoyl)-5,5-dimethyl-thiazolidine-4-carboxylic acid-2-methyl-benzylamide], for which inhibition with 46I, 84V, 90M virus was half-maximal at 405 nM (IC50). Also, the Ki at HIV-1 protease (Q7S) (Ave. Ki (nM)) was 0.31 nM and 1.5 nM.
For the compound `C/C=C/CNC(=O)[C@H]1N(C(=O)[C@@H](O)[C@H](Cc2ccccc2)NC(=O)c2cccc(O)c2C)CSC1(C)C` [Example A38, (R)-3-((2S,3S)-2-Hydroxy-3-{[1-(3-hydroxy-2-methyl-phenyl)-methanoyl]-amino}-4-phenyl-butanoyl)-5,5-dimethyl-thiazolidine-4-carboxylic acid (E)-but-2-enylamide], the EC50 in data set [1] turned out to be 401 nM; in the data set on HIV-1, 78 nM. For the same compound, at HIV-1 protease (Q7S) (Ave. Ki (nM)), the Ki is 0.17 nM.
`Cc1ccccc1CNC(=O)C1N(C(=O)C(O)C(Cc2ccccc2)NC(=O)c2cccc(C)c2C)CSC1(C)C` (stereo not drawn) [Example B17, 3-[3-(2,3-Dimethyl-benzoylamino)-2-hydroxy-4-phenyl-butyryl]-5,5-dimethyl-thiazolidine-4-carboxylic acid 2-methyl-benzylamide]: the EC50 in data set [1] is 1580 nM; in the data set with HIV-1, 534 nM. For the same compound, at HIV-1 protease (Q7S) (Ave. Ki (nM)), the affinity corresponds to a Ki of 0.42 nM.
The corresponding values for `Cc1ccccc1CN(C)C(=O)[C@H]1N(C(=O)[C@@H](O)[C@H](Cc2ccccc2)NC(=O)c2cccc(O)c2C)CSC1(C)C` [Example A7, 3-[2-Hydroxy-3-(3-hydroxy-2-methyl-benzoylamino)-4-phenyl-butyryl]-5,5-dimethyl-thiiazolidine-4-carboxylic acid methyl-(2-methyl-benzyl)-amide] are 832 nM, 104 nM and 0.49 nM.
Regarding `CC(C)=CCNC(=O)[C@H]1N(C(=O)[C@@H](O)[C@H](Cc2ccccc2)NC(=O)c2cccc(O)c2C)CSC1(C)C` [Example A32, (R)-3-((2S,3S)-2-Hydroxy-3-{[1-(3-hydroxy-2-methyl-phenyl)-methanoyl]-amino}-4-phenyl-butanoyl)-5,5-dimethyl-thiazolidine-4-carboxylic acid (3-methyl-but-2-enyl)-amide], the EC50 in data set [1] is 486 nM; in the data set with HIV-1, 45 nM. In addition, the Ki at HIV-1 protease (Q7S) (Ave. Ki (nM)) is below 0.1 nM.
